The values that follow come from BindingDB's records for doi:10.1021/jm00101a032 (Pfizer, 1992).

Experiment [1] in a line: Binding affinity against 5-hydroxytryptamine 1A receptor.
A short description of experiment [2]: Effect on forskolin stimulated adenylate cyclase activity at 5-hydroxytryptamine 1A receptor of guinea pig hippocampus.
Test in experiment [3]: as above
This is another data set of the same source.

The term IC50 denotes the concentration at which inhibition is half-maximal. In general, EC50 refers to the concentration needed to bring the measured effect to its halfway point. A high value points to weaker potency.

In experiment [1], `COc1ccc2[nH]cc(C[C@H]3CCCN3C)c2c1` [5-Methoxy-3-((R)-1-methyl-pyrrolidin-2-ylmethyl)-1H-indole] came in with an IC50 of 10 nM. The response in experiment [2] was half-maximal at 35 nM (EC50).
In experiment [3], `COc1ccc2[nH]cc(C[C@@H]3CCCN3C)c2c1` [5-Methoxy-3-((S)-1-methyl-pyrrolidin-2-ylmethyl)-1H-indole] had an IC50 of 140 nM.
